Reference: article PMC12655457, “Does CytoSorb Interfere with Immunosuppression? A Pharmacokinetic and Functional Evaluation” (Pharmaceutics, 2025)

Experiments:
[1] = Removal of immunosuppressants by chronic dialysis (ex vivo, plasma); format: in vitro ADME, human
Method: (§1) To evaluate the effect of dialysis under clinically relevant conditions, both chronic and acute dialysis settings were simulated using standard Fresenius systems. In all experiments, 1.5 L of citrated human plasma was dialyzed against calcium-free dialysate at 37 °C.
(§2) Prior to circulation, the systems were flushed with 2 L of isotonic saline. Plasma samples were collected at defined time points (15–480 min) and analyzed for immunosuppressants, urea, and albumin. Chronic dialysis represents intermittent high-flow conditions, whereas acute dialysis mimics continuous low-flow therapy used in critically ill patients.
(§3) The clearance (C) of each compound during both the dialysis and the dynamic CytoSorb experiments was calculated using the first-order exponential decay formula:(2) C = V/t ×lnCo/Ct where V = plasma volume, t = treatment time [min], C0 = concentration before starting treatment, Ct = concentration at time t.

[2] = Dynamic CytoSorb adsorption setup (scaled-down circuit, whole blood); format: in vitro ADME, human; details: for mean clearance rate: CytoSorb treatment, at 15 min, Equation (2); for adsorption (removal) by CytoSorb: dynamic ex vivo circuit, 400 mL human whole blood, 30 mL cartridge, 4 h; for reduction of serum levels by CytoSorb (abstract): as stated in the abstract, experiment not specified
Method: To quantify the depletion of selected immunosuppressants during CytoSorb treatment under dynamic conditions, a scaled-down extracorporeal circulation system was established, consisting of a 30 mL CytoSorb adsorption cartridge and a pediatric tubing set filled with 400 mL of freshly drawn human whole blood (Figure 1b). To distinguish between drug removal by adsorption versus uptake by blood components, a control circuit with an identical setup but an empty cartridge was run in parallel for each experiment. Whole blood from two healthy donors of the same blood group was pooled, anticoagulated with citrate (final concentration: 7 mM), spiked with the immunosuppressants, and divided into two 400 mL blood bags.
Prior to circulation, the entire system was flushed with isotonic saline. Then, one of the prepared blood bags (Group 1 or Group 2) was connected to the circuit and circulated for 30 min at 37 °C without the adsorber cartridge to allow for equilibration. Following this equilibration, a baseline sample (0 min) was collected, and the adsorption column was introduced into the circuit. In the adsorption circuit, samples were collected at 15, 30, 60, 120, 180 and 240 min. In the control circuit, samples were taken at baseline and after 240 min. All blood samples were centrifuged (3500× g, 10 min) to separate plasma, which was stored at −80 °C until further analysis.
as §3
(§4) MPA was determined using a validated test for the Cobas c311 autoanalyzer from Roche (Basel, Switzerland). 6-MP was quantified by reversed-phase HPLC [17, 18]. After precipitation of the plasma sample with ice cold methanol in ratio 1:5, 30 µL of the supernatant was injected into a Nukleosil 100-5C18, 4.6 × 150 mm C18 column (Macherey-Nagel, Düren, Germany), combined with an Onyx Monolithic C18, 4.6 × 5 mm guard column (Phenomenex, Torrance, CA, USA). The mobile phase consisted of methanol and deionised water (50:50) which was continuously pumped with a flow rate of 0.8 mL/min for five minutes. 6-MP was quantified with a retention time of 2.3 min using an UV detector (325 nm). The quantification of cytokines was determined by Magnetic Luminex Assay with a human premixed Multi Analyte Kit (R&D Systems, Minneapolis, MN, USA). The urea, albumin and total protein levels were measured with the cobas c311 automated analyzer with corresponding test kits from Roche (Penzberg, Germany).

[3] = system: human whole blood; assay: Whole blood cell model: anti-CD3 stimulation, cytokine measurement; format: cell-based; details: + Anti-CD3, + CytoSorb
Method: (§5) Subsequently, the blood was split into two experimental groups: one was treated with CytoSorb in a batch setup, and the other served as an untreated control, incubated under identical conditions at 37 °C on a roller mixer. Following treatment, all samples were allowed to rest for 4 h. After the resting period, blood samples were stimulated with either lipopolysaccharide (LPS) E. coli or with anti-CD3 antibodies. […] The stimulation was carried out for 4 h at 37 °C on a roller mixer. Thereafter, the blood samples were centrifuged, and the plasma was collected and stored at −80 °C. Leukocyte activation was assessed by quantification of IL-1β, IL-6, IL-8, and TNF-α.

[4] = Whole blood cell model: immunosuppressant serum levels after CytoSorb treatment; format: in vitro ADME, human; details: overnight incubation, p < 0.05, n = 6
Method: To investigate whether the in vitro depletion of immunosuppressants by CytoSorb affects immunosuppression, a whole blood cell model was established. The experiment was conducted over two consecutive days. A graphical overview of the setup is provided in Supplementary Figure S1. On day one, freshly drawn human whole blood was incubated overnight at 37 °C with various immunosuppressants, either individually or in combination, to allow for sufficient drug exposure prior to CytoSorb treatment.
Subsequently, the blood was split into two experimental groups: one was treated with CytoSorb in a batch setup, and the other served as an untreated control, incubated under identical conditions at 37 °C on a roller mixer. Following treatment, all samples were allowed to rest for 4 h. After the resting period, blood samples were stimulated with either lipopolysaccharide (LPS) E. coli or with anti-CD3 antibodies. LPS primarily activates monocytes and neutrophils via the TLR4/CD14/MD2 complex, while anti-CD3 specifically stimulates T cells. The stimulation was carried out for 4 h at 37 °C on a roller mixer. Thereafter, the blood samples were centrifuged, and the plasma was collected and stored at −80 °C. Leukocyte activation was assessed by quantification of IL-1β, IL-6, IL-8, and TNF-α.
as §4

[5] = design: method as in earlier work; details: literature; ref 23 (methylprednisolone), 24 (mycophenolate), 41 (6-mercaptopurine); cited from earlier work
[6] = system: human whole blood; assay: Whole blood cell model: LPS stimulation, cytokine measurement; format: cell-based; details: + CytoSorb
Method: as §5

[7] = Determination of protein binding by ultrafiltration; format: in vitro ADME; details: human plasma, ultrafiltration 30 kDa cutoff; for fraction unbound: read-out: Protein Binding in Plasma, Current Study (converted)
Method: To assess protein binding of the tested immunosuppressants, human plasma was spiked with the respective drugs and urea as a freely diffusible control. Samples were then subjected to ultrafiltration (30 kDa cutoff, 15,000× g, 20 min). The protein-bound fraction was calculated using the following formula:(1) protein binding %= 1−Cfiltrate/Cplasma where cplasma is the concentration of each compound in plasma and cfiltrate is its concentration in the ultrafiltrate.

[8] = Static CytoSorb adsorption setup (spiked plasma with CytoSorb resin); format: in vitro ADME, human; details: plasma:resin 1:10 v/v, 60 min, 37 °C, n = 3
Method: Plasma was obtained by centrifugation (3500× g, 10 min) from citrate-anticoagulated human whole blood and spiked with immunosuppressants to defined target concentrations (Table 1). To evaluate adsorption, plasma was incubated with the CytoSorb resin at 1:10 (v/v) for 60 min at 37 °C on a roller mixer. In parallel, a separate aliquot of spiked plasma was incubated with autologous blood cells (1:1, v/v) to assess cellular uptake of immunosuppressants. Untreated spiked plasma served as control (Figure 1a). Samples were collected before and after incubation for subsequent analysis.
as §4

[9] = literature; ref 21 (6-MP), 22 (CsA), 23 (MPR), 24 (MPA), 25 (TAC); cited from earlier work
[10] = Removal of immunosuppressants by acute dialysis (CVVHD, ex vivo, plasma); format: in vitro ADME, human
Method: as §1, §2, §3

SMILES: COc1c(C)c2c(c(O)c1C/C=C(\C)CCC(=O)O)C(=O)OC2 [MPA, mycophenolic acid]
- removal by dialysis (in words) [1]: only slightly reduced
- mean clearance rate [2]: approximately 44 mL/min
- adsorption (removal) by CytoSorb [2]: 76 ± 2%
- IL-1β serum level ([3]; test 1): 0 pg/mL
- IL-6 serum level ([3]; test 1): 4 pg/mL
- IL-8 serum level ([3]; test 1): 564 pg/mL
- TNF-α serum level ([3]; test 1): 107 pg/mL
- IL-1β serum level ([3]; test 2): 115 pg/mL
- IL-6 serum level ([3]; test 2): 645 pg/mL
- IL-8 serum level ([3]; test 2): 3704 pg/mL
- TNF-α serum level ([3]; test 2): 109 pg/mL
- IL-1β serum level ([3]; test 3): 170 pg/mL
- IL-6 serum level ([3]; test 3): 952 pg/mL
- IL-8 serum level ([3]; test 3): 4924 pg/mL
- TNF-α serum level ([3]; test 3): 55 pg/mL
- reduction in serum level following CytoSorb treatment (in words) [4]: significant reduction
- volume of distribution (Vd) [5]: ≈ 3.6 L/kg
- IL-1β serum level ([6]; test 1): 992 pg/mL
- IL-6 serum level ([6]; test 1): 3303 pg/mL
- IL-8 serum level ([6]; test 1): 4068 pg/mL
- TNF-α serum level ([6]; test 1): 3390 pg/mL
- IL-1β serum level ([6]; test 2): 112 pg/mL
- IL-6 serum level ([6]; test 2): 627 pg/mL
- IL-8 serum level ([6]; test 2): 2855 pg/mL
- TNF-α serum level ([6]; test 2): 1274 pg/mL
- IL-1β serum level ([6]; test 3): 1465 pg/mL
- IL-6 serum level ([6]; test 3): 16855 pg/mL
- IL-8 serum level ([6]; test 3): 15529 pg/mL
- TNF-α serum level ([6]; test 3): 720 pg/mL
- fraction unbound [7]: 0.021
- reduction of level in plasma by CytoSorb [8]: 37 ± 6%
- Protein Binding in Plasma, Reference [9]: 97 [24] %

SMILES: C[C@H]1C[C@@H]2[C@H]([C@@H](O)C[C@@]3(C)[C@H]2CC[C@]3(O)C(=O)CO)[C@@]2(C)C=CC(=O)C=C12 [MPR, methylprednisolone]
- removal by dialysis (in words) [1]: high removal
- clearance ([1]; initial values): ~ 75 mL/min
- mean clearance rate [2]: ~49 mL/min
- reduction of serum levels by CytoSorb (abstract) [2]: 92 ± 3%
- adsorption (removal) by CytoSorb [2]: 92 ± 3%
- removal by dialysis (in words) [10]: moderate removal
- clearance ([10]; after 8 h): below 10 mL/min
- clearance ([10]; highest value reached): ≤ 28 mL/min
- IL-1β serum level ([3]; test 1): 0 pg/mL
- IL-6 serum level ([3]; test 1): 1 pg/mL
- IL-8 serum level ([3]; test 1): 171 pg/mL
- TNF-α serum level ([3]; test 1): 43 pg/mL
- IL-1β serum level ([3]; test 2): 44 pg/mL
- IL-6 serum level ([3]; test 2): 16 pg/mL
- IL-8 serum level ([3]; test 2): 242 pg/mL
- TNF-α serum level ([3]; test 2): 57 pg/mL
- IL-1β serum level ([3]; test 3): 70 pg/mL
- IL-6 serum level ([3]; test 3): 30 pg/mL
- IL-8 serum level ([3]; test 3): 686 pg/mL
- TNF-α serum level ([3]; test 3): 41 pg/mL
- reduction in serum level following CytoSorb treatment (in words) [4]: significant reduction
- volume of distribution (Vd) [5]: ≈ 1.4 L/kg
- IL-1β serum level ([6]; test 1): 354 pg/mL
- IL-6 serum level ([6]; test 1): 3786 pg/mL
- IL-8 serum level ([6]; test 1): 6337 pg/mL
- TNF-α serum level ([6]; test 1): 2920 pg/mL
- IL-1β serum level ([6]; test 2): 26 pg/mL
- IL-6 serum level ([6]; test 2): 73 pg/mL
- IL-8 serum level ([6]; test 2): 1630 pg/mL
- TNF-α serum level ([6]; test 2): 416 pg/mL
- IL-1β serum level ([6]; test 3): 190 pg/mL
- IL-6 serum level ([6]; test 3): 3799 pg/mL
- IL-8 serum level ([6]; test 3): 7104 pg/mL
- TNF-α serum level ([6]; test 3): 1250 pg/mL
- fraction unbound [7]: 0.066
- reduction of level in plasma by CytoSorb [8]: 91 ± 2%
- Protein Binding in Plasma, Reference [9]: 77 [23] %

SMILES: C=CC[C@@H]1/C=C(\C)C[C@H](C)C[C@H](OC)[C@H]2O[C@@](O)(C(=O)C(=O)N3CCCC[C@H]3C(=O)O[C@H](/C(C)=C/[C@@H]3CC[C@@H](O)[C@H](OC)C3)[C@H](C)[C@@H](O)CC1=O)[C@H](C)C[C@@H]2OC [TAC, tacrolimus]
- removal by dialysis (in words) [1]: not effectively removed
- clearance ([1]; throughout): below 2 mL/min
- mean clearance rate [2]: around 15 mL/min
- reduction of serum levels by CytoSorb (abstract) [2]: no significant effect
- adsorption (removal) by CytoSorb [2]: 18 ± 16%
- removal by dialysis (in words) [10]: not effectively removed
- IL-1β serum level ([3]; test 1): 18 pg/mL
- IL-6 serum level ([3]; test 1): 28 pg/mL
- IL-8 serum level ([3]; test 1): 1654 pg/mL
- TNF-α serum level ([3]; test 1): 38 pg/mL
- IL-1β serum level ([3]; test 2): 93 pg/mL
- IL-6 serum level ([3]; test 2): 773 pg/mL
- IL-8 serum level ([3]; test 2): 8613 pg/mL
- TNF-α serum level ([3]; test 2): 53 pg/mL
- IL-1β serum level ([3]; test 3): 268 pg/mL
- IL-6 serum level ([3]; test 3): 2598 pg/mL
- IL-8 serum level ([3]; test 3): 25920 pg/mL
- TNF-α serum level ([3]; test 3): 85 pg/mL
- reduction in serum level following CytoSorb treatment (in words) [4]: no significant adsorption
- IL-1β serum level ([6]; test 1): 412 pg/mL
- IL-6 serum level ([6]; test 1): 7095 pg/mL
- IL-8 serum level ([6]; test 1): 7756 pg/mL
- TNF-α serum level ([6]; test 1): 1967 pg/mL
- IL-1β serum level ([6]; test 2): 62 pg/mL
- IL-6 serum level ([6]; test 2): 584 pg/mL
- IL-8 serum level ([6]; test 2): 2388 pg/mL
- TNF-α serum level ([6]; test 2): 1337 pg/mL
- IL-1β serum level ([6]; test 3): 646 pg/mL
- IL-6 serum level ([6]; test 3): 23302 pg/mL
- IL-8 serum level ([6]; test 3): 50044 pg/mL
- TNF-α serum level ([6]; test 3): 690 pg/mL
- Protein Binding in Plasma, Current Study [7]: 97.9 ± 10.9%
- reduction of level in plasma by CytoSorb [8]: not affected
